Earlier results on one compound are cited in patent US6413717B1, “Methods for indentifying anti-cancer agents” (Corixa Corporation, priority 1998, dated 2002).

Series [1] deals with human melanoma cells. Conditions: IFN-β 2000 U and MEZ 10 ng/mL.
The test system of series [2] is mda-7. Conditions: IFN-β 2000 U and MEZ 10 ng/mL, agents known to modulate gene expression.

With `C=C(C)[C@@]12O[C@@]3(c4ccccc4)O[C@@H]1[C@@H]1[C@@H]4O[C@]4(CO)[C@@H](O)[C@]4(O)C(=O)C(C)=C[C@H]4[C@@]1(O3)[C@H](C)[C@H]2OC(=O)/C=C/C=C/c1ccccc1` [mezerein], in series [1], the proliferative potential entry is reported as “irreversible loss of proliferative potential” and the terminal differentiation result is “induction of terminal differentiation”. Besides, in series [2], the mda-7 expression entry is reported as “induce an increase”.
